# Measurements as given in PMC9598282 (Antibiotics, 2022).
# Read-outs that look alike come from different tables or passages of the source. Bridge positions count the residues as written; N and C are the ends. Square brackets hold non-standard residues; d marks the D form. Peptide text beside a SMILES is read from it. Dab = NCC[C@H](N)C(=O)O
# Legend:
# P. aeruginosa PA 88949 = format: cell-based, Pseudomonas aeruginosa
# Method in brief: (§1)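 Two-fold serial dilutions of antibiotic and guanidinylated polymyxin adjuvant crossed in checkerboard against bacterial inoculum prepared as for susceptibility testing; 18 h at 37 °C, growth read as OD590. FIC index = sum of each agent's MIC in combination divided by its MIC alone; ≤0.5 synergy, >0.5–4 additivity, >4 antagonism.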
# P. aeruginosa PA 107092 = format: cell-based, Pseudomonas aeruginosa
# Method in brief: as §1
# E. coli 107115 = test: microbe, parasite or virus in culture; format: cell-based, Escherichia coli
# Experimental: (§2) The adjuvant properties of the guanidinylated polymyxins were evaluated using the checkerboard assay as previously described. The bacterial solution was prepared as described in the antimicrobial susceptibility assay. The antibiotic of interest and the adjuvant were serially diluted two-fold along the x- and y-axis on a 96-well plate, respectively, resulting in varying concentrations of both agents in each well. Equal volumes of bacterial solution were added to the designated wells. The well consisting of bacterial solution served as the positive control, while the wells containing only media served as the negative control. The plate was then incubated at 37 °C for 18 h. After incubation, an Emax Plus microplate reader (Molecular Devices, Union City, CA, USA) was used to measure the OD at a wavelength of 590 nm to confirm the turbidity. The fractional inhibitory concentration (FIC) index was then determined to establish the relationship between the antibiotic and adjuvant. The FIC index corresponds to the sum of the FICs of the antibiotic and adjuvant. The FIC of each agent is calculated by dividing its MIC when it is used in combination by its MIC when used alone. FIC indices ≤0.5, 0.5 < x ≤ 4 and >4 indicate synergy, additivity and antagonism, respectively.
# K. pneumoniae 113254 = test: Checkerboard assay; format: cell-based, Klebsiella pneumoniae
# Experimental: as §2
# K. pneumoniae 113250 = test: Checkerboard assay; format: cell-based, Klebsiella pneumoniae
# Experimental: as §2
# E. coli 94393 = test: Checkerboard assay; format: cell-based, Escherichia coli
# Experimental: as §2
# E. coli 94474 = test: Checkerboard assay; format: cell-based, Escherichia coli
# Experimental: as §2
# A. baumannii AB031 = test: Checkerboard assay; format: cell-based, Acinetobacter baumannii
# Experimental: as §2
# P. aeruginosa PAO1 = format: cell-based, Pseudomonas aeruginosa; details: wild-type
# Experimental: (§3) For the preparation of the bacterial solution, overnight grown culture was diluted in 0.85% saline solution, adjusted to 0.5 McFarland turbidity and further diluted in Mueller–Hinton broth for inoculation to a final concentration of 5 × 10^5 colony forming units/mL (CFU/mL). The agents were serially diluted two-fold in a 96-well plate, and equal volumes of bacterial solution were subsequently added to the designated wells. The well consisting of bacterial solution served as the positive control, while the well containing only media served as the negative control. The plate was then incubated at 37 °C for 18 h. After incubation, an Emax Plus microplate reader (Molecular Devices, Union City, CA, USA) was used to measure the optical density (OD) at a wavelength of 590 nm to confirm the turbidity. The antibacterial activity corresponded to the MIC, which is defined as the lowest concentration of the agent necessary to inhibit visible bacterial growth.
# P. aeruginosa 114228 = format: cell-based, Pseudomonas aeruginosa; details: 114228, 18 h
# Experimental: as §3
# [1] = adjuvant at 0.5 μg/mL as printed
# [2] = with 8 μM avibactam, adjuvant at 2 (PMBN, GCol), 1 (GPMB) μg/mL
# [3] = agent alone, one value per checkerboard plate
smiles,measurement,setting,value
"CC(C)C[C@@H]1NC(=O)[C@@H](Cc2ccccc2)NC(=O)[C@H](CCN)NC(=O)[C@@H](NC(=O)[C@H](CCN)NC(=O)[C@@H](N)[C@@H](C)O)CCNC(=O)[C@H]([C@@H](C)O)NC(=O)[C@H](CCN)NC(=O)[C@H](CCN)NC1=O [PMBN, polymyxin B nonapeptide] (H-T[Dab][Dab][Dab][dF]L[Dab][Dab]T; lactam 3-C (inferred); N-terminus assumed)",MIC adjuvant alone,"P. aeruginosa PA 88949; PA 88949, 18 h",16 µM
same,Fold potentiation of aztreonam,P. aeruginosa PA 88949; [1],1
same,Fold potentiation of ceftazidime,P. aeruginosa PA 88949; [1],1
same,MIC adjuvant alone,"P. aeruginosa PA 107092; PA 107092, 18 h",56 µM
same,Fold potentiation of aztreonam,P. aeruginosa PA 107092; adjuvant at 2 μg/mL as printed,4
same,Fold potentiation of ceftazidime,"P. aeruginosa PA 107092; adjuvant at 2 (PMBN, GCol), 1 (GPMB) μg/mL",8
same,Fold potentiation of aztreonam,P. aeruginosa PA 107092; [2],4
same,Fold potentiation of ceftazidime,P. aeruginosa PA 107092; [2],8
same,MIC alone,"E. coli 107115; 107115, 18 h",< 256 µg/mL
same,MIC alone,E. coli 107115; [3],> 256 µg/mL
same,Fold-potentiation of erythromycin,E. coli 107115; with 1 μg/mL adjuvant,32
same,Fold-potentiation of rifampicin,E. coli 107115; with 1 μg/mL adjuvant,512
same,Fold-potentiation of ceftazidime,E. coli 107115; with 2 μg/mL adjuvant,32
same,MIC alone,K. pneumoniae 113254; [3],> 256 µg/mL
same,Fold-potentiation of erythromycin,K. pneumoniae 113254; with 8 μg/mL adjuvant,4
same,Fold-potentiation of rifampicin,K. pneumoniae 113254; with 8 μg/mL adjuvant,4
same,MIC alone,K. pneumoniae 113250; [3],> 256 µg/mL
same,Fold-potentiation of erythromycin,K. pneumoniae 113250; with 8 μg/mL adjuvant,8
same,Fold-potentiation of rifampicin,K. pneumoniae 113250; with 8 μg/mL adjuvant,8
same,MIC alone,E. coli 94393; [3],> 256 µg/mL
same,Fold-potentiation of erythromycin,E. coli 94393; with 2 μg/mL adjuvant,8
same,Fold-potentiation of rifampicin,E. coli 94393; with 2 μg/mL adjuvant,8
same,MIC alone,E. coli 94474; [3],> 256 µg/mL
same,Fold-potentiation of erythromycin,E. coli 94474; with 4 μg/mL adjuvant,1
same,Fold-potentiation of rifampicin,E. coli 94474; with 4 μg/mL adjuvant,8
same,MIC alone,A. baumannii AB031; [3],> 256 µg/mL
same,Fold potentiation of aztreonam,A. baumannii AB031; with 0.5 μg/mL adjuvant,1
same,Fold-potentiation of ceftazidime,A. baumannii AB031; with 0.5 μg/mL adjuvant,1
same,Fold-potentiation of erythromycin,A. baumannii AB031; with 0.5 μg/mL adjuvant,4
same,Fold-potentiation of rifampicin,A. baumannii AB031; with 0.5 μg/mL adjuvant,8
same,MIC,P. aeruginosa PAO1,128 µg/mL
same,MIC,P. aeruginosa 114228,>256 µg/mL
